Experimental data: patent US9409895B2, “Autotaxin inhibitors” (Novartis AG, priority 2012, dated 2016)
Where two headings read alike, the source gives them in different places.

Target: Recombinant human ATX (Homo sapiens (Human), UniProt Q13822)
Assay: ATX inhibition assay (released choline, choline oxidase/HRP/Amplex Red fluorescence)
Type: biochemical
Procedure: LPC (oleoyl (18:1)) was purchased from Avant: Polar Lipids (Alabaster, Ala.) and solubilized in methanol to 20 mM. Amplex Red was obtained from Invitrogen Life Technologies (Paisley, UK) and dissolved in DMSO to 10 mM. Choline oxidase and horseradish peroxidase (HRP) were obtained from Sigma Aldrich (Dorset, UK) and dissolved in HBSS to 20 U/ml and 200 U/ml respectively. AH reagents were stored at −20° C. in single use aliquots. All experimental measurements were performed in assay buffer made up immediately prior to use (HBSS, 0.01% BSA essentially fatty acid free).
Recombinant human ATX was prepared at Novartis (Basel, CH) in a human embryonic kidney (HEK) cell preparation, and stored in single use aliquots of […] (26 μM) stocks stored at −80° C.
All experimental measurements were performed in black 384 well polystyrene (low volume, round bottom, Corning (3676)) plates. PerkinElmer EnVision (Fluorescence Intensity/Absorbance Monochromator) or Tecan Infinite 200 PRO series plate reader was used to detect change in fluorescent intensity.
ATX activity was determined by measurement of released choline in reactions containing ATX (10 nM), choline oxidase (0.1 U/ml), HRP (100 U/ml), amplex red (50 μM) and LPC 18:1 (10 μM). Compounds of the invention were prepared as 10 point serial dilutions from 1 μM in duplicate and pre-incubated with ATX at 37° C. for 20 minutes prior to the addition of remaining reagents. The liberated choline was measured from changes in fluorescence intensity (λex 530 nm, λem 590 nm) of the product resurofin at 37° C. every 2 minutes over a 40-minute period. ATX activity was measured as a slope of the linear portion of the progress curve, typically between 14 to 24 minutes.
Slope data was exported to Graphpad prism (Graphpad software, San Diego, Calif.) where data was fitted to equation 1. Y=Bottom+(Top−Bottom)/(1+10^((Log IC50−X)*HillSlope)) Equation 1: […]

Row | IC50 (ATX 10 nM, LPC 18:1 10 μM, 37° C., 20 min pre-incubation, mean of n 2) | Molecule | IC50
1 | 1000 nM | CN(CCC1CCN(C(=O)OCc2cc(Cl)cc(C#N)c2)CC1)C(=O)c1c[nH]nn1 [Example 36, 3-Chloro-5-cyanobenzyl 4-(2-(N-methyl-1H-1,2,3-triazole-4-carboxamido)ethyl)piperidine-1-carboxylate] | –
2 | – | (S)-3,5-Dichlorobenzyl 3-(4-(1H-1,2,3-triazol-4-yl)butanamido)pyrrolidine-1-carboxylate or (R)-3,5-Dichlorobenzyl 3-(4-(1H-1,2,3-triazol-4-yl)butanamido)pyrrolidine-1-carboxylate [Example 49a] | > 1000 nM
3 | – | (S)-3,5-Dichlorobenzyl 3-(4-(1H-1,2,3-triazol-4-yl)butanamido)pyrrolidine-1-carboxylate or (R)-3,5-Dichlorobenzyl 3-(4-(1H-1,2,3-triazol-4-yl)butanamido)pyrrolidine-1-carboxylate [Example 49b] | 263 nM
